# From patent publication US20100311726A1, “REDUCTION OF BETA-AMYLOID LEVELS BY TREATMENT WITH THE SMALL MOLECULE DIFFERENTIATION-INDUCING FACTOR” (priority 2007, published 2010)
# Experiments:
# APP ubiquitin-conjugates = APP ubiquitin-conjugates by immunoprecipitation and western blot; settings: CHO-CAB
# Experimental: For immunoprecipitations, 1 mg of total protein was diluted with extraction buffer and precleared with protein G-conjugated agarose beads (Pierce). The precleared samples were incubated overnight with anti-APP antibodies or nonimmune IgG (Jackson Laboratories). Immunocomplexes were captured with Protein G agarose beads, washed five times with extraction buffer and heated for 5 min at 95° C. in SDS gel-loading buffer.
# CHO-CAB cell protein extracts (1 mg) were immunoprecipitated using APP antibodies. The immunoprecipitated complexes were analyzed by western blotting using anti-ubiquitin antibodies. […] Molecular Weight markers (kDa) are shown on the left. GAPDH levels are shown below each blot. The data represents that of three separate experiments.
# To determine whether the proteasome-mediated degradation of APP is accompanied by increased levels of poly-ubiquitinated APP, we investigated the ubiquitination status of APP in extracts of CHO-CAB cells treated in the absence or presence of DIF-1 (30 μM), lactacystin (10 μM), ALLN (10 μM), DIF-1+lactacystin and DIF-1+ALLN.
# Aβ42 = test: Secreted Aβ42 sandwich ELISA of conditioned media; type: cell-based, human
# Experimental: (§1) The levels of secreted Aβ from CHO-7W cells stably overexpressing APP^751 and CHO-CAB cells that overexpress APP^751 and human BACE1 was quantified by ELISA and viewed by western blot using the monoclonal anti-APP antibody (6E10) that recognizes residues 1-17 of Aβ. Cells (5×10^5) were deposited into 6-well tissue culture dishes in triplicate and allowed to settle and grow for 24 hours. At this time, the media was aspirated and the cells were washed 2× in warm PBS. Fresh media (2 mL) and media supplemented with vehicle or DIF-1 was added to each well. […] Since DIF-1 exerts a cytostatic effect, the cell number was counted for all treatments upon removal of the conditioned media and used to normalize the levels of Aβ. […] The concentration of Aβ40 and Aβ42 was subsequently detected in triplicate using the β-Amyloid 1-40 or 1-42 Colorimetric ELISA kit (Biosource International, Inc.) according to the manufacturer's instructions.
# We then looked at what effect this had on the levels of secreted soluble APP and Aβ production. […] The conditioned media was analyzed using anti-APP antibody 6E10 in order to detect total βP levels and sαAPP levels since it recognizes the amino acids 1-17 of Aβ and thus cannot detect sβAPP. […] The blots were analyzed using a phosphorimager. […]
# [1] = neutral pH; cited from earlier work
# [2] = tested on: CHO cells stably expressing human wild type APP^751 (CHO-7W); test: Cell proliferation assay in APP-expressing CHO cells; type: cell-based, Chinese Hamster
# Text: For proliferation assays, 1×10^4 cells were deposited into 24-well plates and treated with vehicle (ethanol or DMSO) or with various amounts of DIF-1 or DIF-3 for a period of 4 days. Cells were harvested after each day by trypsin/EDTA treatment, stained with an equal volume of 0.05% Trypan blue and enumerated in triplicate twice using a haemocytometer. Dead cells are stained blue, but live cells with intact cell membranes are not coloured. Data represents the mean cell number±the standard deviation for at least 3 separate experiments.
# as §1, with “Aβ.” for “Aβ. Cells (5×10^5) were deposited into 6-well tissue culture dishes in triplicate and allowed to settle and grow for 24 hours. At this time, the media was aspirated and the cells were washed 2× in warm PBS. Fresh media (2 mL) and media supplemented with vehicle or DIF-1 was added to each well.”
# Cells seeded on a 6-well plate were incubated with various concentrations of DIF-1. Cells were harvested by the trypsin/EDTA treatment at the times indicated and counted with a haemocytometer. […]
# human APLP1 = test: APLP1 metabolism by western blot in CHO-A1 cells; type: cell-based; settings: 30 μM DIF-1 or 250 nM DAPT, ~20 hours
# Experimental: CHO cells that stably express human APLP1, which is a closely related family member of the APPs and known γ-secretase substrate (Eggert et al., 2004), were treated with 30 μM DIF-1, DAPT or DIF-1 plus DAPT (FIG. 7). Equal numbers of CHO-A1 cells stably expressing human APLP1 cells were plated in 6-well dishes and allowed to grow overnight. The next day, the media was removed and replaced with control media (2 ml) or media containing DAPT, DIF-1 or DAPT and DIF-1. […] After washing, blots were probed with HRP-conjugated secondary antibodies (1:5000) for 1 hour at room temperature.
# Dictyostelium discoideum = settings: Masento et al., 1988; cited from earlier work
# cyclin D1 = test: Cyclin D1 level by western blot
# Experimental: Following treatment of each cell line with or without DIF-1 (1-30 μM) and/or other inhibitors, cells were lysed in cold RIPA buffer (20 mM Tris-HCl (pH 7.4) buffer containing 150 mM NaCl, 2 mM EDTA, 1% Nonidet® P-40 (NP-40), 50 mM NaF, 1 mM Na3VO4, 1 mM Na2MoO4, 10 mg/ml aprotinin, and 10 mg/ml leupeptin), supplemented with protease inhibitor tablets from Roche (Switzerland). Protein amounts were quantified in triplicate using the BCA assay from Pierce. Equal amounts of protein extracts were fractionated by sodium dodecyl sulfate polyacrylamide gel electrophoresis (SDS-PAGE) and transferred to polyvinylidene difluoride membranes. The membranes were blocked for 1 hour with 5% fat-free powdered milk or 5% BSA, incubated overnight at 4° C. with primary antibodies (1:1000 or 1:5000), washed with TTBS and then incubated at room temperature with appropriate peroxidase-conjugated secondary antibodies (1:5000). Blots were repeatedly washed with TTBS and target proteins were detected using an enhanced chemiluminescence (ECL) system (Amersham Pharmacia Biotech, New Jersey, USA) and XOMAT™ Kodak® film.
# Densitometry analysis of western blot data was performed on a PC computer using QuantityOne® software obtained from Bio-Rad® Laboratories, Inc. (California, USA). Loading variations between western blot lanes were normalized according to the GAPDH signal prior to any experimental quantification. Each western blot presented in the figures is representative of at least five independent experiments to ensure reproducibility of the results unless noted otherwise.
# CHO-CAB cells were treated with lithium chloride (10mM). […] To ensure that the results observed were due to proteasome inhibition, we assessed the effects of lactacystin and ALLN on cyclin D1 levels. […] The data represents that of three separate experiments.
compound,measurement,setting,value
"CCCCCC(=O)c1c(O)c(Cl)c(OC)c(Cl)c1O [DIF-1, 1-[3,5-dichloro-2,6-dihydroxy-4-methoxyphenyl]-1-hexanone]","APP ubiquitin conjugates, treatment with both lactacystin and DIF-1",APP ubiquitin-conjugates,only slightly reduced
same,"APP ubiquitin-conjugates, co-treatment with ALLN",APP ubiquitin-conjugates,prevented the accumulation APP ubiqutin-conjugates
same,level of APP ubiquitin-conjugates (single agent),"APP ubiquitin-conjugates; DIF-1 30 μM, lactacystin 10 μM, ALLN 10 μM",decreased levels of APP ubiquitin-conjugates
same,reduction of secreted Aβ42,"Aβ42; CHO-7W, 30 μM overnight",63.9±7.15%
same,reduction of secreted levels of Aβ42,Aβ42; conditioned media from either CHO-7W or CHO-CAB cells,66.9±2.6%
same,solubility,[1],soluble in both water and hexane
same,total cell number of vehicle treated cells higher than DIF-1 treated cells,"[2]; 25 μM, after 20 hours, CHO-7W and CHO-CAB",~10%
same,"antiproliferative effect in CHO-7W compared to naïve cells (value in brackets, quantity not named)",[2]; CHO-7W,30.6%±1.3
same,"APLP1 maturation, protein levels, CTF levels",human APLP1,"no effect on APLP1 maturation, protein levels or CTF production"
same,absolute specific activity in stalk-cell differentiation,Dictyostelium discoideum,sub-nanomolar range
same,reduction of cyclin D1 level,"cyclin D1; 30 μM, 18-20 hours, CHO-CAB cells and mouse embryonic fibroblasts",~82.56±0.74%
same,effect on cyclin D1 level,"cyclin D1; CHO-7W, 30 μM DIF-1 or 250 nM DAPT",markedly decreased
same,"effect on cyclin D1 accumulation, co-treatment with lactacystin or ALLN",cyclin D1; CHO-CAB,inhibited the accumulation of cyclin D1
